Reference: PubChem BioAssay AID179 (DTP/NCI, 2004)
Values joined by “and” are separate entries in the source; they are usually repeats but may differ in a detail not shown here. Equal entries are not always repeated. Active and inactive are the calls of the source.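 The calls were made as follows: active = compounds giving half or more protection of infected cells from virus-caused growth loss, again on retest; inactive = the rest.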

System: CEM cells HIV-1 protection, formazan growth assay
Test: NCI AIDS Antiviral Assay
Settings: for IC50: measured here: growth of uninfected CEM cells
Outline: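 Screen of anti-HIV-1 activity in human CEM cells using a formazan-based growth measurement at five drug concentrations. Hits with 50% or greater protection were repeated, and confirmation required reproducible complete protection.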

SMILES | EC50 [µM] | IC50 | outcome
O=c1nc2c(c(-c3ccc(Br)cc3)[nH]1)COC/C2=C\c1ccc(Br)cc1 | > 200 | 75.9 µM | –
CC(=O)c1cccc(NC2C(N)C(NC(=O)N(C)C)(C(C)O)C(C)(O)C2(O)COC(=O)c2c(C)cccc2O)c1 (stereo not drawn) | > 64.6 | 0.0427 µM | –
CC(=O)Nc1cc2c3c(c1)CCCN3CCC2 | > 200 | 39.8 µM | –
CCCCSc1ccc2n(C)c(-c3ccc(/C=N\NC(=O)c4ccc(C(=O)N/N=C\c5ccc(-c6c[n+]7cc(SCCCC)ccc7n6C)cc5)cc4)cc3)c[n+]2c1 | 3.24 | 6.31 µM | –
CC(/C=C/c1ccccc1)=Nc1ccccc1 | > 23.4 | > 23.4 µM | –
CNS(=O)(=O)NNS(=O)(=O)c1ccccc1 | > 933 | > 200 µM | –
CC1(C)CC(=O)C2=C(C1)Nc1ccccc1NC2c1ccccc1 (stereo not drawn) | > 200 | > 200 µM | –
CC(=O)Oc1cccc2c1C(=O)C1CC(O)C(O)C3OC(C)(C)OC2(C)C13 (stereo not drawn) | > 468 | > 468 µM | –
O=C1C2C3C=CC(CC3)C2C(=O)C2C3C=CC(C3)C12 (stereo not drawn) | > 200 | 129 µM | –
ClC(Cl)(Cl)C1CCOC1n1nnc2ccccc21 (stereo not drawn) | – | – | inactive
CN(C)c1ccc(C2CC(=O)CC(c3ccc(N(C)C)cc3)C23C(=O)NC(=O)NC3=O)cc1 (stereo not drawn) | > 25.1 | > 25.1 µM | –
CC1OC(OC2C(O)COC(OC3C(C)OC(OC4C(OC(=O)[C@]56CCC(C)(C)C[C@@H]5C5=CCC7[C@@]8(C)C[C@H](O)[C@H](OC9OC(CO)C(O)C(OC%10OC(CO)C(O)C(O)C%10O)C9O)[C@@](C)(CO)[C@@H]8CC[C@@]7(C)[C@]5(C)CC6)OCC(O)C4O)C(O)C3OC3OCC(O)(CO)C3O)C2O)C(O)C(O)C1O (stereo partly drawn) | > 19.1 | 12.3 µM | –
CC(C)=CC[P+](c1ccccc1)(c1ccccc1)c1ccccc1 | > 200 | 2.09 µM | –
NC(=O)Cc1ncn(-c2ccccc2)n1 | > 200 | > 200 µM | –
O=C(/C=C/C(=O)N/N=C/c1cc(S(=O)(=O)O)c2cccnc2c1O)N/N=C/c1cc(S(=O)(=O)O)c2cccnc2c1O | 178 | > 200 µM | –
O=c1ccnc2c1ccc1[nH]cccc12 | > 1260 | 64.6 µM | –
C=C(C)[C@]12CC(C)C34OC(/C=C\C=C\CCCCCCCCC)(O[C@@H]1[C@@H]3[C@@H]1O[C@]1(CO)[C@@H](O)[C@]1(O)C(=O)C(C)=C[C@@H]41)O2 (stereo partly drawn) | > 0.2 | 0.00389 µM | –
CCC(=C(C#N)C#N)c1cc(OC)c(OC)c(OC)c1 | > 26.3 | > 26.3 µM | –
Cn1[nH]cc2ccc3nc4ccccc4c(=O)c3c21 | – | – | inactive
C=CCSS/C=C/CS(=O)CC=C (stereo not drawn) | > 81.3 | 0.692 µM | –
CN1CCN(CCC=C2c3ccccc3Sc3ccc(S(=O)(=O)N(C)C)cc32)CC1 | > 200 | 11.7 µM | –

SMILES | EC50 [µM] | IC50 | outcome
O=C1C2=C(SCCS2)C(=O)c2c(Sc3ccc(Cl)cc3)c(Sc3ccc(Cl)cc3)c(Sc3ccc(Cl)cc3)c(Sc3ccc(Cl)cc3)c21 | > 151 | > 151 µM | –
COC(=O)c1ccc(N2CC=C(C)C(c3ccc(OC)cc3)O2)cc1 (stereo not drawn) | > 15.5 | > 15.5 µM | –
COc1ccc(NC(C)=O)cc1N1C(=O)/C(=C\c2cccc(Oc3ccccc3)c2)S(=O)(=O)C1c1ccccc1 (stereo not drawn) | > 200 | 33.1 µM | –
CCOC(=O)Cc1ccc2c(c1O)C(=O)c1c(ccc(CC(=O)OCC)c1O)C2=O | – | – | inactive
N#CSCc1nc2ccc(Cl)cc2c(-c2ccccc2)[n+]1[O-] | > 55 | 8.91 µM | –
O=C(OCC(Cl)(Cl)Cl)N1CC[C@H](C2CCCCC2)C1 | > 200 | 50.1 µM | –
COc1cc(/C=C(\C#N)c2ccc([N+](=O)[O-])cc2)ccc1O | > 151 | 27.5 µM | –
O=C1NC(O)c2cc(Cl)ccc2O1 (stereo not drawn) | – | – | inactive
Nc1cc(C(=O)NC2C3CC4CC(C3)CC2C4)[nH]c(=S)n1 (stereo not drawn) | > 813 | > 813 µM | –
CC1=NC(C(C)C)C(=O)O1 (stereo not drawn) | > 891 | > 891 µM | –
O=C(CC(C(=O)c1cccs1)c1ccsc1)c1ccsc1 (stereo not drawn) | > 200 | 11.5 µM | –
CC1(n2[nH]c(=O)n(-c3ccccc3)c2=O)Cn2c(=O)n(-c3ccccc3)c(=O)n2-c2ccccc21 (stereo not drawn) | > 200 | > 200 µM | –
SCCCSCCSCCCSCCS | > 17.4 | > 17.4 µM | –
CC(C)CN1CC(=O)N2Cc3ccccc3CN2C(=O)C1 | > 200 | > 200 µM | –
Cc1c(N)nc(C(CC(N)=O)NCC(N)C(N)=O)nc1C(=O)NC(C(=O)NC(C)C(O)C(C)C(=O)NC(C(=O)NCCc1nc(-c2nc(C(=O)NCCCNC(C)c3ccccc3)cs2)cs1)C(C)O)C(OC1OC(CO)C(O)C(O)C1OC1OC(CO)C(O)C(OC(N)=O)C1O)c1cnc[nH]1 (stereo not drawn) | – | – | inactive
COc1cc2c(c(OC)c1OC)C(=O)C1C2N1C(=O)CCCCl (stereo not drawn) | > 200 | > 200 µM | –
c1ccc2c(c1)nn1c3ccc4nonc4c3[n-][n+]21 | – | – | inactive
NC(CSS(=O)(=O)O)=NC1CC2CCC1C2 (stereo not drawn) | > 200 | 120 µM | –
COC(=O)c1cc2ccc(OC(C)=O)c(OC(C)=O)c2cn1 | > 166 | 0.851 µM | –
COc1ccc(Cc2nnc(C)c3c(C)[nH]nc23)cc1OC | – | – | inactive
CCOC(=O)CCn1ncc(Cl)c(Cl)c1=O | > 933 | 4.07 µM | –

SMILES | EC50 [µM] | IC50 | outcome
CN1C(=S)CSc2ccccc21 | > 182 | > 182 µM | –
N#Cc1c(N)n(-c2nc3ccccc3s2)c(=O)c2cc([N+](=O)[O-])ccc12 | > 100 | 12 µM | –
COc1ccccc1-c1csc(CCC(N)C(=O)O)n1 (stereo not drawn) | – | – | inactive
CCN(CC)CCOC(=O)c1ccc(N=NC2Sc3nc4ccccc4n3C2=O)cc1 (stereo not drawn) | – | – | inactive
C=CCNC(=S)/N=C/C(C(=O)Nc1ccccc1OC)=C(\C)O | – | – | inactive
Cc1cc(N(CCC#N)CCC#N)ccc1/C=C1\SC(=S)NC1=O | > 200 | 32.4 µM | –
c1ccc(-c2c(-c3ccccc3)c2=NN(c2ccccc2)c2ccccc2)cc1 | > 200 | 11 µM | –
CCCC1OP(=O)(N2CC(C)N(P3(=O)OCC(CC)C(CCC)O3)CC2C)OCC1CC (stereo not drawn) | > 200 | > 200 µM | –
O=P1(Cc2ccccc2)c2ccccc2-c2ccccc21 | > 200 | 3.63 µM | –
C=C1CCC2C(C)(CO)C(O)CCC2(C)C1CC(O)C1=CCOC1=O (stereo not drawn) | – | – | inactive
COc1ccc(C(=O)C(C(=O)C(=O)Nc2ccc(Cl)c(Cl)c2)c2ccc(OC)cc2)cc1 (stereo not drawn) | > 75.9 | > 75.9 µM | –
Nc1ccc(N=Nc2ccc(/C=C/c3ccc(N=Nc4ccc(N)c5cc(S(=O)(=O)O)ccc45)cc3S(=O)(=O)O)c(S(=O)(=O)O)c2)c2ccc(S(=O)(=O)O)cc12 | > 107 | 30.2 µM | –
CC(=O)/C(=C/n1c(=S)sc2ccccc21)C(=O)Nc1ccccc1C | > 200 | 170 µM | –
COC(=O)[C@@H]1C=C[C@H](NC(C)=O)C1 | – | – | inactive
CCc1c(C)c(C#N)c(=S)n(C2OC(CO)C(O)C(O)C2O)c1C (stereo not drawn) | > 200 | > 200 µM | –
Nc1nc(Cl)c(/C=N\O)c(NCC2(CO)CC(=O)C2)n1 | > 200 | 17 µM | –
CCCC(=O)CC(C)C(=O)C(=O)NC12CC3CC(CC(C3)C1)C2 (stereo not drawn) | > 295 | > 295 µM | –
FC(F)(F)c1cccnc1Sc1nc2ccccc2s1 | > 200 | 38 µM | –
COc1ccc(/C=C/C(=O)c2cc(CN(C)C)c(O)c(CN(C)C)c2)cc1 | > 200 | 40.7 µM | –
O=C1C=C(N2CCN(CCO)CC2)C(=O)c2c(N3CCN(CCO)CC3)cc(N3CCN(CCO)CC3)nc21 | > 158 | > 158 µM | –
NC1=NC(Cn2nc(-c3ccccc3)c3ccccc3c2=O)=NNC(=O)N1 | > 20 | > 20 µM | –

SMILES | EC50 [µM] | IC50 | outcome
COC1=C2C=[N+](C)C3C(=C2C=CC1OC)Cc1cc2c(cc13)OCO2 (stereo not drawn) | > 631 | 3.63 µM | –
O/N=C1\CC2(N3CCOCC3)CCC1(c1ccccc1)CC2 | – | – | inactive
CCCCCCCCCCCCCCCCCCN(C)C | > 200 | 97.7 µM | –
Cc1c(C(=O)O)n2c(C)nnc2c2ccccc12 | > 200 | > 200 µM | –
C[N+](C)([O-])C12CC3CC(CC(C3)C1)C2 | > 200 | > 200 µM | –
CCN(CC)CCN1C(=O)C2C3C=CC(C2C1=O)C1C2C(=O)N(CCN(CC)CC)C(=O)C2C31 (stereo not drawn) | > 200 | > 200 µM | –
COc1ccc2c(c1)O[C@H]1c3ccc(O)cc3OC[C@@H]21 | – | – | inactive
CCOP(=O)(OCC)C1CC(O)CN1OC(=O)C(C)(C)C (stereo not drawn) | > 200 | > 200 µM | –
NCCCNCCCCN1CC1 | > 200 | 1.17 µM | –
CNC1=C(C)C(=O)C(=O)C([C@H](C)CCC=C(C)C)=C1O | > 200 | 6.17 µM | –
CN(Cc1nc2c(N)nc(N)nc2[nH]c1=O)c1ccc(C(=O)NC(CCC(=O)O)C(=O)O)cc1 (stereo not drawn) | > 200 | 10.7 µM and 8.13 µM | –
C/C(=C\c1csc(C)n1)[C@@H]1C[C@@H]2O[C@]2(C)CCC[C@H](C)[C@H](O)[C@@H](C)C(=O)C(C)(C)[C@@H](O)CC(=O)O1 (tested in a mixture with another compound) | > 0.02 | 0.001 µM | –
NC1=NN(c2ccccc2)C(=O)C1/C(=N\NC(=O)c1cc2ccccc2cc1O)C(=O)Nc1ccc(Cl)cc1 (stereo not drawn) | > 6.92 | > 6.92 µM | –
O=C1OCC2=C1C(c1ccc(Cl)cc1)c1cc3c(cc1O2)OCO3 (stereo not drawn) | > 200 | 3.98 µM | –
CC1(C)CCCCCC(C)(CCCCCCCCCCCO)C1=O (stereo not drawn) | > 200 | 30.2 µM | –
O=[N+]([O-])c1c(F)c(F)c2c(c1F)Nc1ccccc1S2 | > 200 | 3.02 µM | –
O=S(Nc1ccccc1)c1cccc(Cl)c1 (stereo not drawn) | – | – | inactive
CCO[C@@]12CCC3CC4CC[C@@](OCC)(O1)C4C32 (stereo partly drawn) | > 200 | > 200 µM | –
O=c1n(-c2ccccc2)c(=O)n2n1C1C=CC2C23C=CC12CCCC3 (stereo not drawn) | > 100 | 77.6 µM | –
COc1ccc(NC(=O)C(/C=N\C(=S)NNC(C)=O)=C(\C)O)cc1 | > 200 | > 200 µM | –
CC(C)(C)n1c(=O)n(C(=O)C(Cl)(Cl)Cl)n(C(=O)C(Cl)(Cl)Cl)c1=O | > 200 | > 200 µM | –
